Calls of active or inactive are those of the source. The rule behind the calls is not given here.
Tested on: RAW264.7
Assay: Antiinflammatory activity against mouse RAW264.7 cells assessed as inhibition of LPS-induced NO production preincubated for 3 hrs followed by LPS stimulation and measured after 24 hrs by Griess reagent based assay
Assay type: functional, cell-based
Details: not given

Compound | IC50
C/C1=C\[C@@H]2[C@H](CC[C@]3(CO3)[C@H](OC(=O)c3cnc(NC(=O)/C=C/c4ccccc4)s3)[C@H]3[C@@H](O)[C@@H](C)C[C@]3(O)C1=O)C2(C)C | > 20 µM
C=C1CC[C@H]2[C@@H](/C=C(\C)C(=O)[C@@]3(O)C[C@H](C)[C@H](O)[C@@H]3[C@H]1OC(=O)c1cn(-c3ccccc3)nc1-c1ccc(Cl)cc1)C2(C)C | > 20 µM
CCn1cc(C(=O)O[C@@H]2[C@H]3[C@@H](O)[C@@H](C)C[C@]3(O)C(=O)/C(C)=C/[C@@H]3[C@H](CC[C@]24CO4)C3(C)C)c(-c2ccc(N(C)C)cc2)n1 | > 20 µM
CCn1cc(C(=O)O[C@@H]2[C@H]3[C@@H](O)[C@@H](C)C[C@]3(O)C(=O)/C(C)=C/[C@@H]3[C@H](CC[C@]24CO4)C3(C)C)c(-c2ccc(C(F)(F)F)cc2)n1 | 10.6 µM
CC(=O)Nc1ncc(C(=O)O[C@@H]2[C@H]3[C@@H](O)[C@@H](C)C[C@]3(O)C(=O)/C(C)=C/[C@@H]3[C@H](CC[C@]24CO4)C3(C)C)s1 | > 20 µM
C/C1=C\[C@@H]2[C@H](CC[C@]3(CO3)[C@H](OC(=O)CCN3C(=O)CS/C3=N\c3ccccc3)[C@H]3[C@@H](O)[C@@H](C)C[C@]3(O)C1=O)C2(C)C | > 20 µM
C=C1CC[C@H]2[C@@H](/C=C(\C)C(=O)[C@@]3(O)C[C@H](C)[C@H](O)[C@@H]3[C@H]1OC(=O)c1cn(-c3ccccc3)nc1-c1ccc(F)cc1)C2(C)C | 10.8 µM
C=C1CC[C@H]2[C@@H](/C=C(\C)C(=O)[C@@]3(O)C[C@H](C)[C@H](O)[C@@H]3[C@H]1OC(=O)c1cn(CC)nc1-c1ccc(C(F)(F)F)cc1)C2(C)C | 7.8 µM
C/C1=C\[C@@H]2[C@H](CC[C@]3(CO3)[C@H](OC(=O)CCC(=O)OCc3c(-c4ccccc4)no[n+]3[O-])[C@H]3[C@@H](O)[C@@H](C)C[C@]3(O)C1=O)C2(C)C | 9.38 µM
C=C1CC[C@H]2[C@@H](/C=C(\C)C(=O)[C@@]3(O)C[C@H](C)[C@H](O)[C@@H]3[C@H]1OC(=O)c1cn(-c3ccccc3)nc1-c1ccc(C)cc1)C2(C)C | > 20 µM
C/C1=C\[C@@H]2[C@H](CC[C@]3(CO3)[C@H](O)[C@H]3[C@@H](O)[C@@H](C)C[C@]3(O)C1=O)C2(C)C | 25.6 µM
CCn1cc(C(=O)O[C@@H]2[C@H]3[C@@H](O)[C@@H](C)C[C@]3(O)C(=O)/C(C)=C/[C@@H]3[C@H](CC[C@]24CO4)C3(C)C)c(-c2ccc(C)cc2)n1 | > 20 µM
C/C1=C\[C@@H]2[C@H](CC[C@]3(CO3)[C@H](OC(=O)c3cnc(NC(=O)c4ccccc4)s3)[C@H]3[C@@H](O)[C@@H](C)C[C@]3(O)C1=O)C2(C)C | 10.9 µM
C=C1CC[C@H]2[C@@H](/C=C(\C)C(=O)[C@@]3(O)C[C@H](C)[C@H](O)[C@@H]3[C@H]1OC(=O)c1cnc(NC(=O)C3CCCCC3)s1)C2(C)C | 5.53 µM
C/C1=C\[C@@H]2[C@H](CC[C@]3(CO3)[C@H](OC(=O)CCC(=O)OCCOCCOc3no[n+]([O-])c3S(=O)(=O)c3ccccc3)[C@H]3[C@@H](O)[C@@H](C)C[C@]3(O)C1=O)C2(C)C | 3.38 µM
CCn1cc(C(=O)O[C@@H]2[C@H]3[C@@H](O)[C@@H](C)C[C@]3(O)C(=O)/C(C)=C/[C@@H]3[C@H](CC[C@]24CO4)C3(C)C)c(-c2ccc(F)cc2)n1 | 13.3 µM
C/C1=C\[C@@H]2[C@H](CC[C@]3(CO3)[C@H](OC(=O)CCC(=O)NCCOc3no[n+]([O-])c3S(=O)(=O)c3ccccc3)[C@H]3[C@@H](O)[C@@H](C)C[C@]3(O)C1=O)C2(C)C | 1.43 µM
C=C1CC[C@H]2[C@@H](/C=C(\C)C(=O)[C@@]3(O)C[C@H](C)[C@H](O)[C@@H]3[C@H]1O)C2(C)C | 11.1 µM
C=C1CC[C@H]2[C@@H](/C=C(\C)C(=O)[C@@]3(O)C[C@H](C)[C@H](O)[C@@H]3[C@H]1OC(=O)c1cn(-c3ccccc3)nc1-c1ccc(N(C)C)cc1)C2(C)C | > 20 µM
C=C1CC[C@H]2[C@@H](/C=C(\C)C(=O)[C@@]3(O)C[C@H](C)[C@H](O)[C@@H]3[C@H]1OC(=O)c1cnc(NC(=O)c3ccccc3)s1)C2(C)C | 7.03 µM
C/C1=C\[C@@H]2[C@H](CC[C@]3(CO3)[C@H](OC(=O)CCC(=O)OCCCCOc3no[n+]([O-])c3S(=O)(=O)c3ccccc3)[C@H]3[C@@H](O)[C@@H](C)C[C@]3(O)C1=O)C2(C)C | 1.82 µM
C=C1CC[C@H]2[C@@H](/C=C(\C)C(=O)[C@@]3(OC(C)=O)C[C@H](C)[C@H](OC(=O)c4ccccc4)[C@@H]3[C@H]1OC(C)=O)C2(C)C | 8.06 µM

Compound | IC50
C=C1CC[C@H]2[C@@H](/C=C(\C)C(=O)[C@@]3(O)C[C@H](C)[C@H](O)[C@@H]3[C@H]1OC(=O)c1cn(CC)nc1-c1ccc(C)cc1)C2(C)C | 7.73 µM
C=C1CC[C@H]2[C@@H](/C=C(\C)C(=O)[C@@]3(O)C[C@H](C)[C@H](O)[C@@H]3[C@H]1OC(=O)c1cnc(NC(=O)/C=C/c3ccccc3)s1)C2(C)C | > 20 µM
C=C1CC[C@H]2[C@@H](/C=C(\C)C(=O)[C@@]3(O)C[C@H](C)[C@H](O)[C@@H]3[C@H]1OC(=O)CCN1C(=O)CS/C1=N\c1ccccc1)C2(C)C | 8.24 µM
C=C1CC[C@H]2[C@@H](/C=C(\C)C(=O)[C@@]3(O)C[C@H](C)[C@H](O)[C@@H]3[C@H]1OC(=O)c1cn(CC)nc1-c1ccc(F)cc1)C2(C)C | > 20 µM
C/C1=C\[C@@H]2[C@H](CC[C@]3(CO3)[C@H](OC(=O)c3cn(-c4ccccc4)nc3-c3ccc(Cl)cc3)[C@H]3[C@@H](O)[C@@H](C)C[C@]3(O)C1=O)C2(C)C | > 20 µM
C=C1CC[C@H]2[C@@H](/C=C(\C)C(=O)[C@@]3(O)C[C@H](C)[C@H](O)[C@@H]3[C@H]1OC(=O)CCC(=O)NCCOc1no[n+]([O-])c1S(=O)(=O)c1ccccc1)C2(C)C | 1.19 µM
C/C1=C\[C@@H]2[C@H](CC[C@]3(CO3)[C@H](OC(=O)CCC(=O)OCc3ccc(COc4no[n+]([O-])c4S(=O)(=O)c4ccccc4)cc3)[C@H]3[C@@H](O)[C@@H](C)C[C@]3(O)C1=O)C2(C)C | 2.61 µM
C/C1=C\[C@@H]2[C@H](CC[C@]3(CO3)[C@H](OC(=O)c3cnc(NC(=O)C4CCCCC4)s3)[C@H]3[C@@H](O)[C@@H](C)C[C@]3(O)C1=O)C2(C)C | 1.49 µM
C/C1=C\[C@@H]2[C@H](CC[C@]3(CO3)[C@H](OC(=O)c3cn(-c4ccccc4)nc3-c3ccc(N(C)C)cc3)[C@H]3[C@@H](O)[C@@H](C)C[C@]3(O)C1=O)C2(C)C | > 20 µM
C=C1CC[C@H]2[C@@H](/C=C(\C)C(=O)[C@@]3(O)C[C@H](C)[C@H](O)[C@@H]3[C@H]1OC(=O)c1cn(-c3ccccc3)nc1-c1ccc(C(F)(F)F)cc1)C2(C)C | 11.2 µM
C=C1CC[C@H]2[C@@H](/C=C(\C)C(=O)[C@@]3(O)C[C@H](C)[C@H](O)[C@@H]3[C@H]1OC(=O)CCC(=O)OCc1c(-c3ccccc3)no[n+]1[O-])C2(C)C | 5.47 µM
C=C1CC[C@H]2[C@@H](/C=C(\C)C(=O)[C@@]3(O)C[C@H](C)[C@H](O)[C@@H]3[C@H]1OC(=O)c1cn(CC)nc1-c1ccc(Cl)cc1)C2(C)C | 5.84 µM
CCn1cc(C(=O)O[C@@H]2[C@H]3[C@@H](O)[C@@H](C)C[C@]3(O)C(=O)/C(C)=C/[C@@H]3[C@H](CC[C@]24CO4)C3(C)C)c(-c2ccc(Cl)cc2)n1 | 15.7 µM
C/C1=C\[C@@H]2[C@H](CC[C@]3(CO3)[C@H](OC(=O)c3cn(-c4ccccc4)nc3-c3ccc(C)cc3)[C@H]3[C@@H](O)[C@@H](C)C[C@]3(O)C1=O)C2(C)C | > 20 µM
C=C1CC[C@H]2[C@@H](/C=C(\C)C(=O)[C@@]3(O)C[C@H](C)[C@H](O)[C@@H]3[C@H]1OC(=O)c1cn(-c3ccccc3)nc1-c1ccc(OC)cc1)C2(C)C | > 20 µM
C/C1=C\[C@@H]2[C@H](CC[C@]3(CO3)[C@H](OC(=O)CCC(=O)OCC#CCOc3no[n+]([O-])c3S(=O)(=O)c3ccccc3)[C@H]3[C@@H](O)[C@@H](C)C[C@]3(O)C1=O)C2(C)C | 1 µM
C=C1CC[C@H]2[C@@H](/C=C(\C)C(=O)[C@@]3(O)C[C@H](C)[C@H](O)[C@@H]3[C@H]1OC(=O)CCC(=O)OCCCCOc1no[n+]([O-])c1S(=O)(=O)c1ccccc1)C2(C)C | 1.55 µM
C/C1=C\[C@@H]2[C@H](CC[C@]3(CO3)[C@H](OC(=O)c3cn(-c4ccccc4)nc3-c3ccc(F)cc3)[C@H]3[C@@H](O)[C@@H](C)C[C@]3(O)C1=O)C2(C)C | 10.6 µM
C=C1CC[C@H]2[C@@H](/C=C(\C)C(=O)[C@@]3(O)C[C@H](C)[C@H](O)[C@@H]3[C@H]1OC(=O)c1cnc(NC(C)=O)s1)C2(C)C | > 20 µM
C=C1CC[C@H]2[C@@H](/C=C(\C)C(=O)[C@@]3(O)C[C@H](C)[C@H](O)[C@@H]3[C@H]1OC(=O)CCC(=O)OCC#CCOc1no[n+]([O-])c1S(=O)(=O)c1ccccc1)C2(C)C | 0.85 µM
C=C1CC[C@H]2[C@@H](/C=C(\C)C(=O)[C@@]3(O)C[C@H](C)[C@H](O)[C@@H]3[C@H]1OC(=O)CCC(=O)OCc1ccc(COc3no[n+]([O-])c3S(=O)(=O)c3ccccc3)cc1)C2(C)C | 5.36 µM

Tested on: RAW264.7
Assay: Antiinflammatory activity against mouse RAW264.7 cells assessed as inhibition of LPS-induced ROS generation at […] preincubated for 3 hrs followed by LPS stimulation and measured after 12 hrs by DCFH-DA probe based flow cytometry
Assay type: functional, cell-based
Details: time 15.0 hrs

Compound | inhibition
CC(=O)N[C@@H](CS)C(=O)O | Active
